Experiment [1] deals with malaria strains 3D7 and K1. Kind of experiment: in vitro anti-plasmodium activity, strain not told apart. It counts as cell-based, Plasmodium falciparum. As for the experimental part:
(§1) The crude extract from culture medium and roots (compound 17), a combination of MeJA derivatives (compound 16), and its individual isolated components were tested in vitro for anti-plasmodium activity against malaria strains 3D7 and K1, as described in previously developed assays. Pure compounds were prepared as 10 mM or 2 mM stock solutions in DMSO.
Parasites were grown in Petri dishes in the presence of fresh group O-positive erythrocytes (hematocrit 4%–6%) in RPMI 1640 (pH 7.3) supplemented with 0.5% AlbuMAX II, 25 mM HEPES, 25 mM NaHCO3, 100 μg/mL hypoxanthine, and 5 μg/mL gentamycin. Cultures were incubated at 37 °C with 5% O2 and 5% CO2. Compounds were prepared as 10 mM stock solutions in DMSO (except compound 18) to measure EC50. The stock solutions were plated in 384-well plates, serially diluted (1:3) in DMSO. Compounds were then transferred to a 384-well assay plate containing 20 μL of RPMI 1640 with 5 μg/mL gentamycin by using a 384-head pin tool. Twenty μL of a synchronized culture suspension (1% rings, 4% hematocrit) was added to each well (final hematocrit and parasitemia, of 2% and 1%, respectively). The final DMSO concentration was 0.65%. Assay plates were incubated for 72 h and parasitemia was measured by using a previously described DNA stain-based assay. The MAR3D7 growth inhibition assay was used for the chloroquine-sensitive 3D7 strain of P. falciparum, and quantified growth by using DNA dyes. The experiment required a total of 96 h, including a 72 h incubation with test compounds. Positive controls were chloroquine and mefloquine. The MARK1 growth inhibition assay was used for the K1 strain of P. falciparum, known to be resistant to both chloroquine and pyrimethamine due to expression of the chloroquine resistance transporter and upregulation of the multi-drug resistance efflux pump. Growth was quantitated by using DNA dyes. The experiment required a total of 96 h, including a 72 h incubation with test compounds. Positive controls were chloroquine and mefloquine.

The test system of experiment [2] is W2 strain of P. falciparum. Details: method as in earlier work. The conditions noted are these: 15 mg/Kg, mice; cited from earlier work.
Experiment [3] deals with chloroquine-sensitive 3D7 strain of P. falciparum. Kind of experiment: MAR3D7 growth inhibition assay (DNA dye). It counts as cell-based, Plasmodium falciparum. The conditions noted are these: 72 h incubation. On the procedure: as §1
(§2) Parasites were grown in Petri dishes in the presence of fresh group O-positive erythrocytes (hematocrit 4%–6%) in RPMI 1640 (pH 7.3) supplemented with 0.5% AlbuMAX II, 25 mM HEPES, 25 mM NaHCO3, 100 μg/mL hypoxanthine, and 5 μg/mL gentamycin. Cultures were incubated at 37 °C with 5% O2 and 5% CO2. Compounds were prepared as 10 mM stock solutions in DMSO (except compound 18) to measure EC50. The stock solutions were plated in 384-well plates, serially diluted (1:3) in DMSO. Compounds were then transferred to a 384-well assay plate containing 20 μL of RPMI 1640 with 5 μg/mL gentamycin by using a 384-head pin tool. […] Assay plates were incubated for 72 h and parasitemia was measured by using a previously described DNA stain-based assay. The MAR3D7 growth inhibition assay was used for the chloroquine-sensitive 3D7 strain of P. falciparum, and quantified growth by using DNA dyes. […] Growth was quantitated by using DNA dyes. […]

Experiment [4] deals with K1 strain of P. falciparum. Put plainly: MARK1 growth inhibition assay (DNA dye). The format is cell-based, Plasmodium falciparum. To be noted: 72 h incubation. On the procedure:
as §1, §2

Data on five molecules can be found in PMC6271036, “Antimalarial Evaluation of the Chemical Constituents of Hairy Root Culture of Bixa orellana L” (Molecules, 2014).

For orientation: EC50 means the concentration that produces a half-maximal response.

“Also recorded” adds a separate entry of the source.

Turning to `C[C@H]1CCC[C@@]23CC4C(C[C@]12C)C4(C)C3` [Compound 1, (2aS,6S,6aR)-1,6,6a-trimethyldecahydro-1,2a-methanocyclopropa[b]naphthalene], the “antimalarial activity (in words)” value in experiment [1] was “promising antimalarial activity”.
In the case of `CC(C)=CCC/C(C)=C/CC/C(C)=C/CC[C@]1(C)CCc2cc(O)cc(C)c2O1` [Compound 3, δ-tocotrienol], in experiment [1], the “antimalarial activity (in words)” value was “promising antimalarial activity”.
As for `CC[C@H](CC[C@@H](C)[C@H]1CC[C@H]2[C@@H]3CC=C4C[C@@H](O)CC[C@]4(C)[C@H]3CC[C@]12C)C(C)C` [Compound 6, β-sitosterol], the “in vivo antimalarial activity” value in experiment [2] is listed as “active”.
Consider `C[C@@H]1CC[C@]2(C(=O)O)CC[C@]3(C)C(=CC[C@@H]4[C@@]5(C)C[C@@H](O)[C@H](O)C(C)(C)[C@@H]5CC[C@]43C)[C@@H]2[C@]1(C)O` [tormentic acid, reference compound], for which the “in vivo antimalarial activity” value in experiment [2] is on record as “active”.
For “(3S,9S,10S,13R,17R)-17-((2R,5S,E)-5-ethyl-6-methylhept-3-en-2-yl)-9,10,13-trimethyl-2,3,4,7,8,9,10,11,12,13,14,15,16,17-tetradecahydro-1H-cyclopenta[a]phenanthren-3-ol [Compound 5]”, the EC50 in experiment [3] turned out to be 3 µM; in experiment [4], 5 µM. Further, in experiment [1], the “antimalarial activity (in words)” value is reported as “promising antimalarial activity; also recorded: most potent compound lead”.
